Paper PMC11149885 (PLOS ONE, 2024)
“And” between values parts separate entries of the source, which are not always exact repeats. Identical values can stand only once. Like-named read-outs stand apart in the source and are kept apart here.

How the values were obtained:
FGFR3 = target: T1, FGFR3 (Homo sapiens, UniProt P22607); experiment: HotSpot kinase screen; assay type: biochemical; conditions: 10μM ATP
T1 construct: purchased Reaction Biology Corporation (contract assay)

VEGFR2 [1] = target: T2, VEGFR2 (Homo sapiens, UniProt P35968); experiment: HotSpot kinase screen; assay type: biochemical; conditions: 10μM ATP
T2 construct: purchased Millipore Corporation (Dundee, Scotland) or Reaction Biology Corporation (contract assay)
T2 sequence (P35968 20-1356): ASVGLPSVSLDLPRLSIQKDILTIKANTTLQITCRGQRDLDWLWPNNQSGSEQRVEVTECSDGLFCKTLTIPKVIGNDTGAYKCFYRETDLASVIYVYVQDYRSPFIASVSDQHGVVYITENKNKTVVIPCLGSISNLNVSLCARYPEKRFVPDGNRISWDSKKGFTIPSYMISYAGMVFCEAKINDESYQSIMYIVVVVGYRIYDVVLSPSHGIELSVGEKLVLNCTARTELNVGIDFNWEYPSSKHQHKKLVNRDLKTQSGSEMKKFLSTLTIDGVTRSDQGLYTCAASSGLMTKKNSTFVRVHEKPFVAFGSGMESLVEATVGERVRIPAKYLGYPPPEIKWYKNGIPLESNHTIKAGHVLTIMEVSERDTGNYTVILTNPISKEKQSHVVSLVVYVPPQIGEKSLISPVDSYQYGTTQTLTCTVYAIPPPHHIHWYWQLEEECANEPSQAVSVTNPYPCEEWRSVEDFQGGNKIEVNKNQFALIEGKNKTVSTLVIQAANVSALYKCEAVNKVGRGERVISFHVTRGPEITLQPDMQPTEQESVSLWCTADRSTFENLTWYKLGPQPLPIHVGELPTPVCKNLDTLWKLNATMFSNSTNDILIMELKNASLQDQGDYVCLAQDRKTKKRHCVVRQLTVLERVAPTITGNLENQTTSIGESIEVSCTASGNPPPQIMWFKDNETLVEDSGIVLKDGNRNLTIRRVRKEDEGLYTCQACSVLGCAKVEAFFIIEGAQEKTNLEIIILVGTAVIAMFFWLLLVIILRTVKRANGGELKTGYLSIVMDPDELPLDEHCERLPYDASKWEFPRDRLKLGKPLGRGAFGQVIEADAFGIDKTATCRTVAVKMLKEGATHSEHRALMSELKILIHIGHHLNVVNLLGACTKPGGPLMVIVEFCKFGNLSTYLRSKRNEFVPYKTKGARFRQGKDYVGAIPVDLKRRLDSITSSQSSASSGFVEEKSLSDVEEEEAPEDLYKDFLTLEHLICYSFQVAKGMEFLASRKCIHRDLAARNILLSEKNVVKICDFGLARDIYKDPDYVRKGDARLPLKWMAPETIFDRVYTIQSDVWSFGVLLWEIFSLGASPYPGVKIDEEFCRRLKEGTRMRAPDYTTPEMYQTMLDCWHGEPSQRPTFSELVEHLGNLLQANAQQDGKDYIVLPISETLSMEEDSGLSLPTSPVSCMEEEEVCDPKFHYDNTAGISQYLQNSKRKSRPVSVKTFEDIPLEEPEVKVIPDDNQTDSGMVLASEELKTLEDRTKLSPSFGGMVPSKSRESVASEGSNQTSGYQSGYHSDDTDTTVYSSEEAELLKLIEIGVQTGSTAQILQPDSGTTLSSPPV

FGFR2 = target: T3, FGFR2 (Homo sapiens, UniProt P21802); experiment: HotSpot kinase screen; assay type: biochemical; conditions: 10μM ATP
T3 construct: purchased Reaction Biology Corporation (contract assay)
Protocol: (§1) Measurement of kinase activity was performed by Reaction Biology Corporation (Reaction Biology Corporation, Malvern, PA), using the HotSpot™ assay. The screen focused on RTKs reported in the literature to play a major role in the regulation of angiogenesis (VEGFR1, VEGFR2, and VEGFR3; fibroblast growth factor receptor [FGFR] 1, 2, and 3; and platelet-derived growth factor receptor beta [PDGFRβ]) as well as an RTK essential for maintaining blood vessel stability (TIE2). For the profiling, specific kinase/substrate pairs and required cofactors were prepared in a reaction buffer (20mM Hepes [pH 7.5], 10mM MgCl2, 1mM EGTA, 0.02% Brij35, 0.02 mg/mL BSA, 0.1mM Na3VO4, 2mM DTT, 1% dimethyl sulfoxide [DMSO]). TKI compounds were diluted to 10μM and 1μM concentrations for the screens and after addition to the reaction buffer incubated for 20 minutes, followed by the addition of a mixture of ATP (Sigma, St. Louis, MO) and ^33P-ATP (Perkin Elmer, Waltham, MA) to a final ATP concentration of 10μM. Reactions were carried out at room temperature for 2 hours, followed by spotting of the reactions onto P81 ion exchange filter paper (Whatman Inc., Piscataway, NJ). Unbound phosphate was removed by extensive washing of the filters. […] Kinome TREEspot images representing levels of inhibition were prepared using Kinome Mapper (https://www.reactionbiology.com/resources/tools/kinase-mapper).

VEGFR3 [2] = target: T4, VEGFR3 (Homo sapiens, UniProt P35916); experiment: HotSpot kinase screen; assay type: biochemical; conditions: 10μM ATP
T4 construct: purchased Millipore Corporation (Dundee, Scotland) or Reaction Biology Corporation (contract assay)
T4 sequence (P35916 25-1363): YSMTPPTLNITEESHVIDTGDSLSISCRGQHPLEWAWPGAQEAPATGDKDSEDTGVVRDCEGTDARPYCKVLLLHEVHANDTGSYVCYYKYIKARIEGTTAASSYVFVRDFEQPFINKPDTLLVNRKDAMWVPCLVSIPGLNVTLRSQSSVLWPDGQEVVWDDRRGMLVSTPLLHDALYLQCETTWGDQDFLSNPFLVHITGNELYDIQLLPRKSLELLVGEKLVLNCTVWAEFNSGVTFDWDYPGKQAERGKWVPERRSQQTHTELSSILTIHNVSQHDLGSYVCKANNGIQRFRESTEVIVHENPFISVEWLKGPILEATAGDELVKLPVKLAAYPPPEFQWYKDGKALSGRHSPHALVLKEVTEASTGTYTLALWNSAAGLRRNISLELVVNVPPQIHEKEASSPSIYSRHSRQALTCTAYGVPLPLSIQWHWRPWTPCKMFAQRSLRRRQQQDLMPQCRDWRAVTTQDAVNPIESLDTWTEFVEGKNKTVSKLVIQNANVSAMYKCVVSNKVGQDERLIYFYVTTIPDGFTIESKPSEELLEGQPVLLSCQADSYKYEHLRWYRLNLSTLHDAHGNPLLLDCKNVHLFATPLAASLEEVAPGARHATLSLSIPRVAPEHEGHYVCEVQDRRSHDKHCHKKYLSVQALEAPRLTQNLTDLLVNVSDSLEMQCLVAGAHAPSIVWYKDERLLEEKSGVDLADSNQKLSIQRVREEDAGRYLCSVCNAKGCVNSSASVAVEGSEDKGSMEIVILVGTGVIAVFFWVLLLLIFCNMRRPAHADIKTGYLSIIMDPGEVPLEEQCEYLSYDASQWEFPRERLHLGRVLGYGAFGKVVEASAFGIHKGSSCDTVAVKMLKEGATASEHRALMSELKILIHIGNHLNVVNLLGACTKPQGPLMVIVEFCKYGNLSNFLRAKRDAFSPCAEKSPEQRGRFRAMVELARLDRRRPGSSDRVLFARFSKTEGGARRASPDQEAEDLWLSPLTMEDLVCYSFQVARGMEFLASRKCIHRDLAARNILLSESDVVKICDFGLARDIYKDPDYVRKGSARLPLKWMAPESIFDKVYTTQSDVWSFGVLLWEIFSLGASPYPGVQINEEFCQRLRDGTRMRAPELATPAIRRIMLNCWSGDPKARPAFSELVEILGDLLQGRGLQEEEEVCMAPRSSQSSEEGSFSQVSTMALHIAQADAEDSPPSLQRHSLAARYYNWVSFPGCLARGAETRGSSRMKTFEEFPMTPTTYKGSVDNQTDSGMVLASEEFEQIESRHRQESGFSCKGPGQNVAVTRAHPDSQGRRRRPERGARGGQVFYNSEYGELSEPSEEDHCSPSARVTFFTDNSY
Protocol: as §1

VEGFR3 [3] = target: T4, VEGFR3; experiment: Ten-dose IC50 measurement; assay type: biochemical; conditions: 10μM ATP
VEGFR2 [4] = target: T2, VEGFR2; experiment: Previously reported IC50 (literature); assay type: biochemical; conditions: nM value converted, S2 Fig legend
[5] = 634 ug, cited from earlier work
VEGFR2 [6] = target: T2, VEGFR2; conditions: cited from earlier work
synthetic melanin = experiment: in vitro
VEGFR1 [7] = target: T5, VEGFR1 (Homo sapiens, UniProt P17948); experiment: Ten-dose IC50 measurement
T5 sequence (P17948 27-1338): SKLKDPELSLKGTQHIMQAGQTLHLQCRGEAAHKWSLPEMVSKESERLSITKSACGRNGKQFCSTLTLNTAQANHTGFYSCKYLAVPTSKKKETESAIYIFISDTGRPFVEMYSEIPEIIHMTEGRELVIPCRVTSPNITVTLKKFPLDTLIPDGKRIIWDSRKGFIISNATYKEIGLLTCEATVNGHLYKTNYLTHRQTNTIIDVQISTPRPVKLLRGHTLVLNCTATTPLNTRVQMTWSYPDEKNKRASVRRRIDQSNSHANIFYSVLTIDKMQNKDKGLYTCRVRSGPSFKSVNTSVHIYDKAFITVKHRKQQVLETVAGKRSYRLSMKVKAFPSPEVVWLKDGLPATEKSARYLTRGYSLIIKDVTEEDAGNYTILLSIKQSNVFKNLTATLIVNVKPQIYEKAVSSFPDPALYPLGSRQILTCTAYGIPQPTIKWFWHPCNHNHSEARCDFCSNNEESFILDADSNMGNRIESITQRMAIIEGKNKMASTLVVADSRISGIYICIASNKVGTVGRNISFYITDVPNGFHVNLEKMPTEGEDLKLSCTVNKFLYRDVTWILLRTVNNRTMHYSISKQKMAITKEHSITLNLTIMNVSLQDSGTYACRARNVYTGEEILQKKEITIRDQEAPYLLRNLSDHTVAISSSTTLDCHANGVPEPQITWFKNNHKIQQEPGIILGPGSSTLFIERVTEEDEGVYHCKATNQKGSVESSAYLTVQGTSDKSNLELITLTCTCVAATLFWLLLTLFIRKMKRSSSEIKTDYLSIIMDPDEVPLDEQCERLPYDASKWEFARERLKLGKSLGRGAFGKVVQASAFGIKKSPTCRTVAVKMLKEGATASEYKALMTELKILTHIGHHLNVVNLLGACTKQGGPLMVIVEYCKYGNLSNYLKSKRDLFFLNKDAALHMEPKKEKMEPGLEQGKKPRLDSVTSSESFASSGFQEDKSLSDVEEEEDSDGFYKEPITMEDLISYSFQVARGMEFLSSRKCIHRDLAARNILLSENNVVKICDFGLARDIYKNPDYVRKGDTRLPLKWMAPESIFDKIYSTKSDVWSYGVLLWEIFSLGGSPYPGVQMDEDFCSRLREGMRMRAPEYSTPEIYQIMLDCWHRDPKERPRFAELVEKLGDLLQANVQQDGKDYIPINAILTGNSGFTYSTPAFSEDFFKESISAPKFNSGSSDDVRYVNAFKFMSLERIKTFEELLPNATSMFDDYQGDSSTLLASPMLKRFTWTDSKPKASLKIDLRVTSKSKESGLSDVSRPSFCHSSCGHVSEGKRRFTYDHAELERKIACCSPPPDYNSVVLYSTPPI

TIE2 [8] = target: T6, TIE2 (Homo sapiens, UniProt Q02763); experiment: Ten-dose IC50 measurement
T6 sequence (Q02763 23-1124): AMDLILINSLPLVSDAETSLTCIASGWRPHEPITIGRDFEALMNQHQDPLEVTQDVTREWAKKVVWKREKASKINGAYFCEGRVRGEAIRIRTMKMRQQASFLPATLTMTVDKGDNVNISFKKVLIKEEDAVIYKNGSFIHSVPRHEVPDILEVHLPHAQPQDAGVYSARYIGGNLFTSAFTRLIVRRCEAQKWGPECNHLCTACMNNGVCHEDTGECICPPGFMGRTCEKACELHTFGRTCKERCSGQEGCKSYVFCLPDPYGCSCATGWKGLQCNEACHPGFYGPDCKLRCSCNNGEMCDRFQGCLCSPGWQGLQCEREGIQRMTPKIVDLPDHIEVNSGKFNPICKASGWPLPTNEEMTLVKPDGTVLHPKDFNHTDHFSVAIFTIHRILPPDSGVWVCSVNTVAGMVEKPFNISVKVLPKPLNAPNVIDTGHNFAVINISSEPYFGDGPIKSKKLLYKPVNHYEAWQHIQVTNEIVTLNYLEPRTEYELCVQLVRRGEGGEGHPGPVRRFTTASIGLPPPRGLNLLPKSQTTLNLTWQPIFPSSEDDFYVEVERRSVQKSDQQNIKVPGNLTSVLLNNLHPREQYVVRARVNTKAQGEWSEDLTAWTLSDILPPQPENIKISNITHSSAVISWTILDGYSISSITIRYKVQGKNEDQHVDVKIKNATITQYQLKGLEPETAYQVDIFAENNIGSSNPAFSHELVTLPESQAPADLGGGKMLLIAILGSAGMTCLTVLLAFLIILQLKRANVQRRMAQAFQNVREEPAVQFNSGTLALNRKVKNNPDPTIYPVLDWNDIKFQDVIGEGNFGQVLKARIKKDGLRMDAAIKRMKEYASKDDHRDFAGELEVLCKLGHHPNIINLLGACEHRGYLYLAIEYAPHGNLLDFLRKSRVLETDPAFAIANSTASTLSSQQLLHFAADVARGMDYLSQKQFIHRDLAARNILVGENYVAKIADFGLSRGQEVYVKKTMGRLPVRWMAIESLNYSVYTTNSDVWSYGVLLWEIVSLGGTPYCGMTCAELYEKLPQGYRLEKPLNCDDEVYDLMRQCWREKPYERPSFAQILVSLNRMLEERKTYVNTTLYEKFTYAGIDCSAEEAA

TIE2 [9] = target: T6, TIE2; experiment: HotSpot kinase screen; assay type: biochemical; design: purchased Reaction Biology Corporation (contract assay); conditions: 10μM ATP
[10] = system: VEGF-induced angiogenesis on the CAM; experiment: Gelatin sponge chick chorioallantoic membrane (CAM) assay
VEGFR1 [11] = target: T5, VEGFR1; experiment: HotSpot kinase screen; assay type: biochemical; design: purchased Millipore Corporation (Dundee, Scotland) or Reaction Biology Corporation (contract assay); conditions: 10μM ATP
Protocol: as §1

SMILES: Cc1[nH]c(/C=C2\C(=O)Nc3ccc(F)cc32)c(C)c1C(=O)N[C@H]1CCN(C(=O)N(C)C)C1 [Vorolanib]
- Avg % Inhibition FGFR3 (FGFR3; 1uM TKI): 63.96%
- Avg % Inhibition FGFR3 (FGFR3; 10uM TKI): 86.13%
- Avg % Inhibition VEGFR2 (VEGFR2 [1]; 1uM TKI): 74.78%
- Avg % Inhibition VEGFR2 (VEGFR2 [1]; 10uM TKI): 86.6%
- Avg % Inhibition FGFR2 (FGFR2; 1uM TKI): 56.64%
- Avg % Inhibition FGFR2 (FGFR2; 10uM TKI): 90.82%
- Avg % Inhibition VEGFR3 (VEGFR3 [2]; 1uM TKI): 90.14%
- Avg % Inhibition VEGFR3 (VEGFR3 [2]; 10uM TKI): 98.55%
- IC50 (VEGFR3 [3]; S1 Dataset, read-out: IC50 VEGFR3): 3.39e-08 M
- %Activity VEGFR3 (VEGFR3 [3]; 1.00E-05 M TKI): 2.39%
- %Activity VEGFR3 (VEGFR3 [3]; 1.11E-06 M TKI): 8.63%
- %Activity VEGFR3 (VEGFR3 [3]; 1.23E-07 M TKI): 30.49%
- %Activity VEGFR3 (VEGFR3 [3]; 1.37E-08 M TKI): 60.22%
- %Activity VEGFR3 (VEGFR3 [3]; 1.52E-09 M TKI): 79.65%
- %Activity VEGFR3 (VEGFR3 [3]; 3.33E-06 M TKI): 4.43%
- %Activity VEGFR3 (VEGFR3 [3]; 3.70E-07 M TKI): 18.98%
- %Activity VEGFR3 (VEGFR3 [3]; 4.12E-08 M TKI): 44.44%
- %Activity VEGFR3 (VEGFR3 [3]; 4.57E-09 M TKI): 68.37%
- %Activity VEGFR3 (VEGFR3 [3]; 5.08E-10 M TKI): 81.12%
- IC50 (VEGFR3 [3]; Fig 3A inset, unit inferred, plot axes in (M), read-out: Compound IC50 data for VEGFR-3: IC50): 3.39e-08 M
- IC50 (VEGFR2 [4]): 52.3 nM
- Concentration, choroid ([5]; 2 days post-treatment): 124 µg/g
- Concentration, choroid ([5]; 14 days post-treatment): 52 µg/g
- Concentration, choroid ([5]; 29 days post-treatment): 74 µg/g
- Concentration, choroid ([5]; 62 days post-treatment): 206 µg/g
- Concentration, choroid ([5]; 120 days post-treatment): 109 µg/g
- Concentration, choroid ([5]; 182 days post-treatment): 200 µg/g
- Concentration, choroid ([5]; 240 days post-treatment): 293 µg/g
- Concentration, retina ([5]; 2 days post-treatment): 208.6 µg/g
- Concentration, retina ([5]; 14 days post-treatment): 223.3 µg/g
- Concentration, retina ([5]; 29 days post-treatment): 143.1 µg/g
- Concentration, retina ([5]; 62 days post-treatment): 136.3 µg/g
- Concentration, retina ([5]; 120 days post-treatment): 434.5 µg/g
- Concentration, retina ([5]; 182 days post-treatment): 243.2 µg/g
- Concentration, retina ([5]; 240 days post-treatment): 122.5 µg/g
- IC50 (VEGFR2 [6]; determined by Millipore Corporation prior to the study, read-out: VEGFR2 IC50 (used to set CAM doses)): 52 nM
- IC50 (VEGFR2 [6]; previously reported, read-out: VEGFR2 IC50): 1.12 nM
- fraction unbound at 1 h (synthetic melanin): 0.857
- %Activity VEGFR1 (VEGFR1 [7]; 1.00E-05 M TKI, 10μM ATP): 15.82%
- %Activity VEGFR1 (VEGFR1 [7]; 1.11E-06 M TKI, 10μM ATP): 42.07%
- %Activity VEGFR1 (VEGFR1 [7]; 1.37E-08 M TKI, 10μM ATP): 89.38%
- %Activity VEGFR1 (VEGFR1 [7]; 1.52E-09 M TKI, 10μM ATP): 85.26%
- %Activity VEGFR1 (VEGFR1 [7]; 3.33E-06 M TKI, 10μM ATP): 22.84%
- %Activity VEGFR1 (VEGFR1 [7]; 3.70E-07 M TKI, 10μM ATP): 64.45%
- %Activity VEGFR1 (VEGFR1 [7]; 4.12E-08 M TKI, 10μM ATP): 79.63%
- %Activity VEGFR1 (VEGFR1 [7]; 4.57E-09 M TKI, 10μM ATP): 88.85%
- IC50 (VEGFR1 [7]; Compound IC50 data for VEGFR-1: IC50, Fig 3A inset, unit inferred, plot axes in (M), 10μM ATP): 9.44e-07 M
- IC50 (VEGFR1 [7]; IC50 VEGFR1, 10μM ATP, S1 Dataset): 9.44e-07 M
- %Activity TIE2 (TIE2 [8]; 1.00E-05 M TKI, 10μM ATP): 69.30%
- %Activity TIE2 (TIE2 [8]; 1.11E-06 M TKI, 10μM ATP): 100.16%
- %Activity TIE2 (TIE2 [8]; 1.37E-08 M TKI, 10μM ATP): 100.50%
- %Activity TIE2 (TIE2 [8]; 1.52E-09 M TKI, 10μM ATP): 103.72%
- %Activity TIE2 (TIE2 [8]; 3.33E-06 M TKI, 10μM ATP): 83.50%
- %Activity TIE2 (TIE2 [8]; 3.70E-07 M TKI, 10μM ATP): 100.13%
- %Activity TIE2 (TIE2 [8]; 4.12E-08 M TKI, 10μM ATP): 99.77%
- %Activity TIE2 (TIE2 [8]; 4.57E-09 M TKI, 10μM ATP): 100.65%
- %Activity TIE2 (TIE2 [8]; 5.08E-10 M TKI, 10μM ATP): 98.18%
- IC50 (TIE2 [8]; IC50 TIE2, 10μM ATP, S1 Dataset): 20.7 µM
- IC50 (TIE2 [8]; TIE2 IC50, determined by Reaction Biology (US), 10μM ATP): 20.7 µM
- Avg % Inhibition TIE2 (TIE2 [9]; 1uM TKI): 4.09%
- Avg % Inhibition TIE2 (TIE2 [9]; 1uM TKI, listed as vorolanib): 4%
- Avg % Inhibition TIE2 (TIE2 [9]; 10uM TKI): 21.27%
- Avg % Inhibition TIE2 (TIE2 [9]; 10uM TKI, listed as vorolanib): 21%
- Angiogenesis - Vessel number, Mean ([10]; TKI at 200 x VEGFR2 IC50): 8.7
- Angiogenesis - Vessel number, individual egg ([10]; TKI at 200 x VEGFR2 IC50, one value per egg): 1.33 and 10.33 and 14 and 8.33 and 9.33 and 9
- reduction of the number of blood vessels perfusing the sponges vs negative control ([10]; TKI at 200× VEGFR2 IC50 dose): 37.1%
- reduction of the number of blood vessels perfusing the sponges vs negative control ([10]; TKI at VEGFR2 IC50 dose): 39.9%
- Angiogenesis - Vessel thickness score, Mean ([10]; TKI at VEGFR2 IC50 dose, score 0-3): 1.2
- Angiogenesis - Vessel thickness score, individual egg ([10]; TKI at VEGFR2 IC50 dose, score 0-3, one value per egg): 0 and 1.67 and 1.33 and 1 and 0.67 and 2.33
- Avg % Inhibition VEGFR1 (VEGFR1 [11]; 1uM TKI): 54.61%
- Avg % Inhibition VEGFR1 (VEGFR1 [11]; 10uM TKI): 77.43%
